The text below walks through data of US8012941B2, “Carba-nucleoside analogs for antiviral treatment” (Gilead Sciences, Inc., priority 2008, dated 2011).

In assay [1] the test system is HCV replicon cells. The assay can be described thus: HCV EC50 determination: replicon cells, luciferase readout. The class given is cell-based. The note with it: Hepatitis C virus, 72 h. How it is done: Replicon cells were seeded in 96-well plates at a density of 8×10^3 cells per well in 100 μL of culture medium, excluding Geneticin. Compound was serially diluted in 100% DMSO and then added to the cells at a 1:200 dilution, achieving a final concentration of 0.5% DMSO and a total volume of 200 μL. Plates were incubated at 37° C. for 3 days, after which culture medium was removed and cells were lysed in lysis buffer provided by Promega's luciferase assay system. Following the manufacturer's instruction, 100 μL of luciferase substrate was added to the lysed cells and luciferase activity was measured in a TopCount luminometer.

In assay [2] the target is T1, HCV Δ21 NS5b polymerase (Hepatitis C virus genotype 1b, UniProt Q9WMX2).
T1 construct: 75 nM HCV Δ21 NS5b polymerase
The assay can be described thus: HCV IC50 determination: NS5b polymerase assay. The note with it: triphosphates of the listed examples, 35° C., 90 min. The class given is biochemical. The procedure:
Assay Protocol: NS5b polymerase assay (40 μL) was assembled by adding 28 μL polymerase mixture (final concentration: 50 mM Tris-HCl at pH 7.5, 10 mM KCL, 5 mM MgCl2, 1 mM DTT, 10 mM EDTA, 4 ng/μL of RNA template, and 75 nM HCV Δ21 NS5b polymerase) to assay plates followed by 4 μL of compound dilution. The polymerase and compound were pre-incubated at 35° C. for 10 minute before the addition of 8 μL of nucleotide substrate mixture (33P-α-labeled competing nucleotide at KM and 0.5 mM of the remaining three nucleotides). The assay plates were covered and incubated at 35° C. for 90 min. Reactions were then filtered through 96-well DEAE-81 filter plates via vacuum. The filter plates were then washed under vacuum with multiple volumes of 0.125 M NaHPO4, water, and ethanol to remove unincorporated label. Plates were then counted on TopCount to assess the level of product synthesis over background controls. The IC50 value was determined using Prism fitting program.

Where [3] appears, read: replicon cells, 3 days at 37° C., luciferase activity, read-out: EC50.

Like-named read-outs stand apart in the source and are kept apart here.

In the case of `C[C@@]1(O)[C@H](O)[C@@H](CO)O[C@H]1c1cnc2c(N)ncnn12` [Compound 1, (2S,3R,4R,5 R)-2-(4-aminoimidazo[1,2-f][1,2,4]triazin-7-yl)-5-(hydroxymethyl)-3-methyl-tetrahydrofuran-3,4-diol], the EC50 in assay [1] (setting [3]) was below 10 µM.
For the compound `CC(C)OC(=O)[C@H](C)NP(=O)(OC[C@H]1O[C@@H](c2nnc3c(=O)[nH]c(N)nn23)[C@](C)(O)[C@@H]1O)Oc1ccc(Cl)cc1` (stereo partly drawn) [Compound 9], the concentration for a half-maximal effect (EC50) in assay [1] is below 250 µM.
Turning to `CNc1ncnn2c([C@@H]3O[C@H](COP(=O)(OCCSC(=O)C(C)(C)C)OCCSC(=O)C(C)(C)C)[C@@H](O)[C@@]3(C)O)cnc12` [Compound 18], in assay [1], the concentration for a half-maximal effect (EC50) was below 10 µM.
In assay [2], “(2S,3R,4R,5 R)-2-(4-aminoimidazo[1,2-f][1,2,4]triazin-7-yl)-5-(hydroxymethyl)-3-methyl-tetrahydrofuran-3,4-diol [Compound 1]” returned an IC50 below 10 µM.
In the case of `CNc1ncnn2c([C@@H]3O[C@H](CO)[C@@H](O)[C@@]3(C)O)cnc12` [Compound 17], the concentration giving a half-maximal response (EC50) in assay [1] (setting [3]) is below 10 µM.
Turning to `C[C@@]1(O)[C@H](O)[C@@H](CO)O[C@H]1c1cnc2c(N)nc(N)nn12` [Compound 3], in assay [1] (setting [3]), the EC50 was below 250 µM.
